Experiments:
Experiment in all cases: GENEchip mRNA expression in gastrocnemius
Assay type in all cases: in vivo, rat
[1] = system: ATP-binding cassette, sub-family B (MDR/TAP), member; settings: probe 1369161_at
Description: (§1) After the period of test breeding, kidney was removed and frozen at −80° C. Using an LM200 system (Olympus Corporation), the renal glomerulus was cut from kidney of mice while keeping low temperature. tRNA of renal glomerulus was extracted using tRNA extraction regent “Isogen” (produced by Nippon Gene Co., Ltd.), and then preparation of cRNA and hybridization were performed according to the Affymetrix GeneChip Eukaryotic Small Sample Target Labeling Assay Ver. II.
(§2) (1) Synthesis of first strand cDNA: 1 μL of total RNA solution and 1 of 5 μM T7-Oligo(dT) primer were mixed, heated at 70° C. for 6 minutes, and then cooled at 4° C. for 2 minutes. 3 μL of RT_Premix_1 (1.5 μL DEPC-treated water, 4 μL 5× First strand Buffer, 2 μL DTT (0.1 M), 1.5 μL dNTP Mix (10 mM), 1 μL RNase inhibitor (40 U/μL), and 2 μL Super-Script II (200 U/μL)) was added and reverse transcribed at 42° C. for 1 hour. The sample was heated at 70° C. for 10 minutes to inactivate Super Script II, and then cooled to 4° C. (2) Synthesis of second strand cDNA: 32.5 μl of SS_Premix_1 (91 μL DEPC-treated water, 30 μL 5× Second Strand Buffer, 3 μL dNTP (10 mM), 1 μL E. coli DNA ligase (10 U/μL); 4 μL E. coli DNA polymerase (10 U/μL), and 1 μL RNase H (2 U/μL)) was added to the first strand cDNA solution and allowed to react for 2 hours at 16° C. (3) To the resulting cDNA, was added 1 μL T4 DNA polymerase (5 U/μl) and allowed to react for 10 minutes at 16° C., and purified by ethanol precipitation. (4) In vitro transcription: To the dried double-stranded cDNA pellet, was added 10 μL of reagents (4 μL DEPC-treated water, 4 μL premixed NTPs, 1 μL 10× reaction buffer, and 1 μL 10× enzyme mix), and allowed to react at 37° C. in a water bath for 6 hours. (5) First cycle cRNA was purified using the RNeasy Mini Kit in accordance with the protocol in the handbook (QIAGEN). (6) Subsequently, for the amplification and labeling, the cRNA sample was mixed with random primers (0.2 μg/μL), treated at 70° C. for 10 minutes, cooled on ice for 2 minutes, 5 μL of RT_Premix_2 (5× First Strand Buffer, DTT (0.1 M), dNTP mix (10 mM), RNase inhibitor (40 U/μL), and SuperScript II (200 U/μL) was added, and allowed to react at 42° C. for 1 hour. (7) Next, Second Sstrand cDNA synthesis was carried out by adding 5 μM T7-Oligo(dT) promoter treating at 70° C. for 6 minutes, cooling at 4° C., and adding 62 μL of SS_Premix_2 (43 μL it DEPC-treated water, 15 μL 5× Second Strand Buffer, 1.5 μL dNTP mix (10 mM), and 2 μL E. coli DNA polymerase (10 U/μL)). (8) To the resulting cDNA, was treated added 1 μL of T4 DNA polymerase (5 U/μL), allowed to react at 16° C. for 10 minutes, and purified by ethanol precipitation. (9) To perform in vitro transcription and labeling with the ENZO BioArray High Yield RNA Transcript Labeling Kit, 40 μL of reagents (22 μL DEPC-treated solution, 4 μL 10×HY reaction buffer, 4 μL 10× biotin-labeled ribonucleotides, 4 μL 10×DTT, 4 μL 10× RNase to inhibition mix, and 2 μL 20× T7 RNA polymerase) were added, and allowed to react at 37° C. for 4 hours. (10) Labeled cRNA target was purified with RNeasy columns. (11) The fragmentation and hybridization were performed according to “GeneChip Expression Analysis Technical Manual”.
(§3) The prepared labeled cRNA was hybridized to a GeneChip “mouse Expression Set 430A, representing a total of 22,690 mouse transcripts” (Affymetrix). For data analysis, the GeneChip Analysis Suite Ver. 5.1 (Affymetrix) was used. All microarrays were scaled to a target intensity of 1000 and were compared with background, noise, and overall staining intensity. Differentially expressed transcripts were identified by algorithms of the software y Affymetrix.
(§4) 9-week-old Wistar male rats were bred each being fed a normal diet for breeding and water ad libitum under the conditions with a 12 hours light-dark cycle at a temperature of 21° C. to 25° C. and were accustomed to the environment in advance. […]

[2] = system: very low density lipoprotein receptor; settings: probe 1369098_at
Description: as §1, §2, §3, §4

[3] = system: transforming growth factor, beta 2; settings: probe 1387172_a_at
Description: as §1, §2, §3, §4

[4] = system: Protein phosphatase 3, catalytic subunit gamma isoform; settings: probe 1398469_at
Description: [The source words this procedure for another organism and reports this organism under the same test.] as §1, §2, §3, §4

[5] = system: murine thymoma viral (v-akt) oncogene homolog 2; settings: probe 1387353_at
Description: as §1, §2, §3, §4

neuronatin = settings: probe 1369999_a_at
Description: [The source words this procedure for another organism and reports this organism under the same test.] as §1, §2, §3, §4

RT1 class II, locus Ba = settings: probe 1377334_at
[6] = denervated left leg gastrocnemius, astaxanthin group vs control group
[7] = denervated left leg gastrocnemius, astaxanthin-administered group
[8] = right leg (control) gastrocnemius, astaxanthin group vs control group
[9] = right leg (control) gastrocnemius, astaxanthin-administered group

CC1=C(/C=C/C(C)=C/C=C/C(C)=C/C=C/C=C(C)/C=C/C=C(C)/C=C/C2=C(C)C(=O)C(O)CC2(C)C)C(C)(C)CC(O)C1=O (stereo not drawn) [astaxanthin, 3,3′-dihydroxy-β,β-carotene-4,4′-dione]
gene expression intensity ratio ad/nd [1, 6]: 1.41 | luminescence intensity ad [1, 7]: 306.9 | gene expression intensity ratio ac/nc [1, 8]: 1.34 | luminescence intensity ac [1, 9]: 677.1 | gene expression intensity ratio ad/nd [2, 6]: 1.49 | luminescence intensity ad [2, 7]: 318 | gene expression intensity ratio ac/nc [2, 8]: 1.00 | luminescence intensity ac [2, 9]: 500.5 | gene expression intensity ratio ad/nd [3, 6]: 0.57 | luminescence intensity ad [3, 7]: 677.8 | gene expression intensity ratio ac/nc [3, 8]: 1.06 | luminescence intensity ac [3, 9]: 479.9 | gene expression intensity ratio ad/nd [4, 6]: 1.90 | luminescence intensity ad [4, 7]: 333.1 | gene expression intensity ratio ac/nc [4, 8]: 1.09 | luminescence intensity ac [4, 9]: 523.6 | gene expression intensity ratio ad/nd [5, 6]: 0.67 | luminescence intensity ad [5, 7]: 1042.6 | gene expression intensity ratio ac/nc [5, 8]: 0.83 | luminescence intensity ac [5, 9]: 715.4 | gene expression intensity ratio ad/nd (neuronatin; [6]): 0.61 | luminescence intensity ad (neuronatin; [7]): 640.7 | gene expression intensity ratio ac/nc (neuronatin; [8]): 0.79 | luminescence intensity ac (neuronatin; [9]): 106.4 | gene expression intensity ratio ad/nd (RT1 class II, locus Ba; [6]): 0.51 | luminescence intensity ad (RT1 class II, locus Ba; [7]): 312 | gene expression intensity ratio ac/nc (RT1 class II, locus Ba; [8]): 1.60 | luminescence intensity ac (RT1 class II, locus Ba; [9]): 220.5

Source: US10828269B2, “Reducing muscle atrophy by administering astaxanthin” (FUJI CHEMICAL INDUSTRIES CO., LTD., priority 2004, dated 2020)
